# Experimental data as given in EP4740948A1 (Dong Wha Pharm. Co., Ltd., priority 2023, dated 2025).
# Experiments:
# [1] = tested on: G401 cells; assay: Cancer cell proliferation inhibition (Cell Counting Kit-8), rhabdoid tumor cell line; assay type: cell-based; details: 1000 nM, cultured seven to 11 days; for inhibition at 1 µM: Homo sapiens, G-401, 264 h, read-out: % inhibition rate G401
# Source text: (§1) Among solid cancer cells, in G401 cells in which expression of SMARCB1, which is a member of switch/sucrosenon-fermenting (SWI/SNF), is defective as a cell line of a rhabdoid tumor in which a therapeutic effect may be expected through dual inhibition of EZH1/2, and MKN-45 cells in which expression of ARID1A, which is a member of SWI/SNF, is defective as a gastric cancer cell line, a proliferation inhibitory ability of the 1,3-benzodioxole derivative compounds represented by chemical formula I of the present invention was evaluated.
# (§2) Each cell line (G401 cell, MKN-45 cell, Lovo cell, SW-13 cell, MIA-PaCa-2, NCI-H1299) of Table 2 below was cultured using RPMI1640, McCoy's 5a, L-15 or DMEM containing 10% fetal bovine serum, and the cells were seeded into wells of a 96-well culture dish at 100 to 1,000 cells each, and a test substance 1000 nM was cultured for seven to 11 days after drug treatment. After the culture, the cells were measured according to a manufacturer's instructions using Cell Counting Kit-8, and a cell proliferation inhibitory effect (% inhibition rate) of the test substance was obtained.
# (§3) The cell proliferation inhibitory effect (% inhibition rate) of the test substance was calculated using a following equation. % inhibition rate = {1−(testgroup/controlgroup)} X 100 [formula]
# [2] = tested on: MIA-PaCa-2 cells; assay: Cancer cell proliferation inhibition (Cell Counting Kit-8), pancreatic cancer cell line; assay type: cell-based; details: Homo sapiens, MIA PaCa-2, 264 h, 1000 nM, cultured seven to 11 days; read-out: % inhibition rate MIA-Paca2
# Protocol: (§4) In addition, as one example of solid cancer in which an overexpression of EZH2 and a consequent disease association therebetween is reported, a proliferation inhibitory activity of the 1,3-benzodioxole derivative compounds represented by chemical formula I of the present invention was evaluated in Lovo cells as a colorectal cancer cell line, SW-13 cells as an adrenal cancer cell line, MIA-PaCa-2 cells as a pancreatic cancer cell line, and NCI-H1299 cells as a lung cancer cell line.
# as §2, §3
# [3] = biological target: EZH1 (Homo sapiens, UniProt Q92800); assay: AlphaLISA enzyme activity inhibition, EZH1; assay type: biochemical; details: for inhibition at 0.005 µM: 5nM test substance; for inhibition at 0.01 µM: 10nM test substance
# Protocol: (§5) In order to confirm the EZH1 and/or EZH2 activity inhibitory effect of the 1,3-benzodioxole derivative compounds represented by chemical formula I of the present invention, the activity was measured using an AlphaLISA test method. The test substance dissolved in dimethylsulfoxide (DMSO) was diluted in a test solution (20 mM Tris pH 8.0, 0.1% BSA, 0.01% Triton X-100, 0.5 mM DTT) according to a final treatment concentration (5 nM or 10 nM) and mixed with EZH1 and EZH2, respectively, and then histone H3 peptide and S-adenosylmethionine (SAM) were added to initiate an enzyme reaction. An acceptor bead was added thereto after reaction for two hours and subjected to an additional reaction for one hour, after which a donor bead was added thereto. After an additional reaction for 30 minutes, the reaction was completed. An activity was measured using the Magellan program on a Spark10M instrument. DMSO was used as a control group, an inhibition rate of enzyme activity was calculated using a following equation, and the results thereof are shown in Table 1 below. [formula]
# [4] = biological target: EZH2 (Homo sapiens, UniProt Q15910); assay: AlphaLISA enzyme activity inhibition, EZH2; assay type: biochemical; details: for inhibition at 0.005 µM: 5nM test substance; for inhibition at 0.01 µM: 10nM test substance
# Protocol: as §5
# [5] = tested on: SW-13 cells; assay: Cancer cell proliferation inhibition (Cell Counting Kit-8), adrenal cancer cell line; assay type: cell-based; details: Homo sapiens, SW13, 264 h, 1000 nM, cultured seven to 11 days; read-out: % inhibition rate SW-13
# Protocol: as §4, §2, §3
# [6] = tested on: NCI-H1299 cells; assay: Cancer cell proliferation inhibition (Cell Counting Kit-8), lung cancer cell line; assay type: cell-based; details: Homo sapiens, NCI-H1299, 264 h, 1000 nM, cultured seven to 11 days; read-out: % inhibition rate NCI-H129 9
# Protocol: as §4, §2, §3
# [7] = tested on: Lovo cells; assay: Cancer cell proliferation inhibition (Cell Counting Kit-8), colorectal cancer cell line; assay type: cell-based; details: Homo sapiens, LoVo, 264 h, 1000 nM, cultured seven to 11 days; read-out: % inhibition rate LoVo
# Protocol: as §4, §2, §3
# [8] = tested on: MKN-45 cells; assay: Cancer cell proliferation inhibition (Cell Counting Kit-8), gastric cancer cell line; assay type: cell-based; details: Homo sapiens, MKN-45, 264 h, 1000 nM, cultured seven to 11 days; read-out: % inhibition rate MKN -45
# Source text: as §1, §2, §3
# EZH2, sequence (Q15910 whole entry, species assumed): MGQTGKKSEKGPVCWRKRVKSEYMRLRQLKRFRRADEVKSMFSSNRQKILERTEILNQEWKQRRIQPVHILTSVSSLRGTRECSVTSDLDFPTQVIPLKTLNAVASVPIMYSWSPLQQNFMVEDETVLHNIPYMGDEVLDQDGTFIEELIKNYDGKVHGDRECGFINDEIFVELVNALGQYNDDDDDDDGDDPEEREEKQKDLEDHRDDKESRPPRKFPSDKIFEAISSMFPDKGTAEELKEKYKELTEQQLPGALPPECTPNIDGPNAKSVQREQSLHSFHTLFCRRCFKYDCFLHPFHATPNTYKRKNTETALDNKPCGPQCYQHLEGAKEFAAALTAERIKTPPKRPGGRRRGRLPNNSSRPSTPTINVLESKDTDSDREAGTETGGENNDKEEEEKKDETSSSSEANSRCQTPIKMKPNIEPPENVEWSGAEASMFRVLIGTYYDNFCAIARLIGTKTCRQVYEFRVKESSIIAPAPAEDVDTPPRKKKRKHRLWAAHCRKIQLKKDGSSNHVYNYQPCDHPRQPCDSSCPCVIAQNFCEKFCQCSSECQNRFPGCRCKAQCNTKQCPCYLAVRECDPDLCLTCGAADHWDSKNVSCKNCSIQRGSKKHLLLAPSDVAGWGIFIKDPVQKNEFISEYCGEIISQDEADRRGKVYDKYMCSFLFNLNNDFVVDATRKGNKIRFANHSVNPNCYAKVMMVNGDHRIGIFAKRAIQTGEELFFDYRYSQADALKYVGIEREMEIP
# EZH2, sequence (O75530 whole entry partner, species assumed): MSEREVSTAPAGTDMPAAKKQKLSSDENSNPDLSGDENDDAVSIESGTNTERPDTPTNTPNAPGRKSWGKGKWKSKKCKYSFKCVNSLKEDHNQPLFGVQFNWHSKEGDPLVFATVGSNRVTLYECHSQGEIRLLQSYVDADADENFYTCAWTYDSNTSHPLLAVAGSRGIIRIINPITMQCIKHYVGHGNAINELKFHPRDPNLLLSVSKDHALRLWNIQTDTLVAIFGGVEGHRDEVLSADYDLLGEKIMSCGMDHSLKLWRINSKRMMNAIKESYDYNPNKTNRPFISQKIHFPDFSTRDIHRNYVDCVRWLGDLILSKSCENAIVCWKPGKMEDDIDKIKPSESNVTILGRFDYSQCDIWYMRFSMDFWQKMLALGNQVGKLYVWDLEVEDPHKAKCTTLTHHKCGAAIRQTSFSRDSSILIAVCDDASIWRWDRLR
# EZH2, sequence (Q15022 whole entry partner, species assumed): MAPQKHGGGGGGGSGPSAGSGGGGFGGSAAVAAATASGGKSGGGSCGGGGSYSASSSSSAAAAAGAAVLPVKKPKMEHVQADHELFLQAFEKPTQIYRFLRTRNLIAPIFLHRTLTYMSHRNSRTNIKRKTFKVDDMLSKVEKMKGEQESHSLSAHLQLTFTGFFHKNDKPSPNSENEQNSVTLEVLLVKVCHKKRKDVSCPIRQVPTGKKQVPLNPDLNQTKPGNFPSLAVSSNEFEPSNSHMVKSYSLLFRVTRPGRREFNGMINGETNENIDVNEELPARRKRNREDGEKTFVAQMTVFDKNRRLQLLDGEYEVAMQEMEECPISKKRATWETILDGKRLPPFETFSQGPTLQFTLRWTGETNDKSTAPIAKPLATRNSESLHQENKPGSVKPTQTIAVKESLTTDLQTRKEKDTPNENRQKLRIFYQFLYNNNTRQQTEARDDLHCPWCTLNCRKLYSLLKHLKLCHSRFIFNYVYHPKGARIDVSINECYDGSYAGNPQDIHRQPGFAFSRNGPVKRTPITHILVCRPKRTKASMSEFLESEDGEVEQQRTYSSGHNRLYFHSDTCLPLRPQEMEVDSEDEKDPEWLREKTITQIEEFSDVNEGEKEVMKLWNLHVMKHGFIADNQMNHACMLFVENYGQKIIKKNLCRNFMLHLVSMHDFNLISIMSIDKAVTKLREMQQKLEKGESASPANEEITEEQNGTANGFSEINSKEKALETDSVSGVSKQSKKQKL
# EZH1, sequence (Q92800 whole entry, species assumed): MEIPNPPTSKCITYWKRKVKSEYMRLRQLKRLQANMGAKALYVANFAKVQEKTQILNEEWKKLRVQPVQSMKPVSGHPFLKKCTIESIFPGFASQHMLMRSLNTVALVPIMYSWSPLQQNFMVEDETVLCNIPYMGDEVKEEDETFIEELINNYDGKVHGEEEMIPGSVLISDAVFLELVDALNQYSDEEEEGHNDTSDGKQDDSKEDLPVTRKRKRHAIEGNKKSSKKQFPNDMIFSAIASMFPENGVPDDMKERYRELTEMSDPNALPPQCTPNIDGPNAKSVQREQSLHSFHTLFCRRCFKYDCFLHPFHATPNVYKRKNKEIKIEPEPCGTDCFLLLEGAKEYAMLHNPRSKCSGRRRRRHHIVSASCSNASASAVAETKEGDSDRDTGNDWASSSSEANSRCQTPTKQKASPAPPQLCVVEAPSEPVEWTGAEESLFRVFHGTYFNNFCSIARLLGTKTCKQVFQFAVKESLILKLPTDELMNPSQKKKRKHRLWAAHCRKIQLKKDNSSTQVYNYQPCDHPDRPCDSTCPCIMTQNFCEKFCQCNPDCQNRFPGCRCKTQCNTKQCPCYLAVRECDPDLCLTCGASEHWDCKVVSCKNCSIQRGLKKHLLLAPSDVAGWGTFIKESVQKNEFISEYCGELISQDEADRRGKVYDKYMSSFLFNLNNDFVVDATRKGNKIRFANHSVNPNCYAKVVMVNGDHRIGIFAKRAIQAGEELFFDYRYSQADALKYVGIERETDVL
# EZH1, sequence (O75530 whole entry partner, species assumed): as the sequence (O75530 whole entry partner, species assumed) above
# EZH1, sequence (Q15022 whole entry partner, species assumed): as the sequence (Q15022 whole entry partner, species assumed) above
SMILES,inhibition at 0.005 µM [3] [%],inhibition at 0.01 µM [3] [%],inhibition at 0.005 µM [4] [%],inhibition at 0.01 µM [4] [%],inhibition at 1 µM [1] [%],inhibition at 1 µM [2] [%],inhibition at 1 µM [5] [%],inhibition at 1 µM [6] [%],inhibition at 1 µM [7] [%],inhibition at 1 µM [8] [%],% inhibition rate G401 ([1]; 1 µM)
"CCN1CCN(c2ncc(-c3cc(C(=O)NCc4c(SC)cc(C)[nH]c4=O)c(C)c4c3OC(C)(C3CCN(CC(F)(F)F)CC3)O4)cn2)CC1 (stereo not drawn) [Compound 75, 7-(2-(4-ethylpiperazin-1-yl)pyrimidin-5-yl)-2,4-dimethyl-N-((6-methyl-4-(methylthio)-2-oxo-1,2-dihydropyridin-3-yl)methyl)-2-(1-(2,2,2-trifluoroethyl)piperidin-4-yl)benzo[d][1,3]dioxole-5-carboxamide]",61.3,86,79,99.7,≥ 70,≤ 30,30 to 70,≤ 30,≥ 70,30 to 70,–
"COCCN(C)[C@H]1CC[C@H](C2(C)Oc3c(-c4cnc(N(C)C)nc4)cc(C(=O)NCc4c(SC)cc(C)[nH]c4=O)c(C)c3O2)CC1 (relative stereo) [Compound 26, 7-(2-(dimethylamino)pyrimidin-5-yl)-2-(trans-4-((2-methoxyethyl)(methyl)amino)cyclohexyl)-2,4-dimethyl-N-((6-methyl-4-(methylthio)-2-oxo-1,2-dihydropyridin-3-yl)methyl)benzo[d][1,3]dioxole-5-carboxamide]",87.3,–,99.6,–,30 to 70,≤ 30,30 to 70,≤ 30,≥ 70,≤ 30,–
"COCCN(C)[C@H]1CC[C@H](C2(C)Oc3c(-c4ccc(OC)nc4)cc(C(=O)NCc4c(SC)cc(C)[nH]c4=O)c(C)c3O2)CC1 (relative stereo) [Compound 28, 2-(trans-4-((2-methoxyethyl)(methyl)amino)cyclohexyl)-7-(6-methoxypyridin-3-yl)-2,4-dimethyl-N-((6-methyl-4-(methylthio)-2-oxo-1,2-dihydropyridin-3-yl)methyl)benzo[d][1,3]dioxole-5-carboxamide]",77.3,–,99.4,–,30 to 70,≤ 30,30 to 70,≤ 30,30 to 70,≤ 30,–
"CSc1cc(C)[nH]c(=O)c1CNC(=O)c1cc(-c2ccc(N3C[C@@H](C)O[C@@H](C)C3)nc2)c2c(c1C)OC(C)(C1CCN(C(=O)C(F)(F)F)CC1)O2 (single isomer, unassigned) [Compound 59]",42.2,5.7,98.5,99.5,–,≤ 30,30 to 70,30 to 70,≥ 70,30 to 70,+++ (+++: ≥70%)

# More lines, main results first:
inhibition at 0.005 µM [3] [%],inhibition at 0.01 µM [3] [%],inhibition at 0.005 µM [4] [%],inhibition at 0.01 µM [4] [%],SMILES,inhibition at 1 µM [1] [%],inhibition at 1 µM [2] [%],inhibition at 1 µM [5] [%],inhibition at 1 µM [6] [%],inhibition at 1 µM [7] [%],inhibition at 1 µM [8] [%],% inhibition rate G401 ([1]; 1 µM)
53.1,79.3,86.1,98.1,CCN(C)c1ncc(-c2cc(C(=O)NCc3c(SC)cc(C)[nH]c3=O)c(C)c3c2OC(C)(C2CCN(CC(F)(F)F)CC2)O3)cn1 (stereo not drawn) [Compound 78],≥ 70,≤ 30,≤ 30,≤ 30,≥ 70,30 to 70,–
73.5,–,66.5,–,"CSc1cc(C)[nH]c(=O)c1CNC(=O)c1cc(-c2ccc(N3CCC(F)(F)CC3)nc2)c2c(c1C)OC(C)([C@H]1CC[C@H](N(C)C)CC1)O2 (relative stereo) [Compound 3, 7-(6-(4,4-difluoropiperidin-1-yl)pyridin-3-yl)-2-(trans-4-(dimethylamino)cyclohexyl)-2,4-dimethyl-N-((6-methyl-4-(methylthio)-2-oxo-1,2-dihydropyridin-3-yl)methyl)benzo[d][1,3]dioxole-5-carboxamide]",30 to 70,≤ 30,30 to 70,30 to 70,30 to 70,≤ 30,–
